What was measured:
[1] = test system: recombinant human anti-SARS-CoV antibody 03-018; assay type: binding; parameters: Binding of antibody 03-018 to linear peptides of the N protein of SARS-CoV Urbani / Binding of antibody 03-018 to looped/cyclic peptides of the N protein of SARS-CoV Urbani: unit not given here
[2] = test system: control sera (pooled serum of ten healthy LUMC hospital workers; commercial negative donor pooled serum from the Dutch bloodbank); assay type: binding, human; parameters: Binding of Control serum LUMC to linear peptides / Binding of Control serum Blood-bank to linear peptides / Binding of Control serum LUMC to looped peptides / Binding of Control Serum Blood-Bank to Looped peptides / Binding of Control serum LUMC to linear peptides of the protein M of SARS-CoV Urbani / Binding of Control serum Blood-bank to linear peptides of the protein M of SARS-CoV Urbani / Binding of Control serum LUMC to looped peptides of the protein M of SARS-CoV Urbani / Binding of Control Serum Blood-Bank to Looped peptides of the protein M of SARS-CoV Urbani: unit not given here
[3] = test system: rabbit serum obtained by immunizing a rabbit with the SARS-CoV strain Frankfurt 1; assay type: binding; parameters: Binding of a rabbit serum to linear peptides / Binding of a rabbit serum to looped peptides / Rabbit serum linear peptides / Rabbit serum looped peptides / Binding of a rabbit serum to linear peptides of protein N of SARS-CoV Urbani (Rabbit serum linear peptides) / Binding of a rabbit serum to looped/cyclic peptides of protein N of SARS-CoV Urbani (Rabbit serum looped peptides): unit not given here
[4] = test system: antibodies in sera from SARS patients (sera 1a, 1b, 2, 6, 37, 62, London, SARS-yellow, SARS-green); assay type: binding, human; parameters: Binding of serum 6 to linear peptides of protein X1 of SARS-CoV Urbani / Binding of serum 37 to linear peptides of protein X1 of SARS-CoV Urbani / Binding of serum 6 to looped/cyclic peptide (PEPSCAN-ELISA) / Binding of serum 37 to looped/cyclic peptide (PEPSCAN-ELISA) / Binding of serum 37 to looped/cyclic peptides of protein X1 of SARS-CoV Urbani / Binding of serum 6 to linear peptides of protein X2 / Binding of serum 37 to linear peptides of protein X2 / Binding of serum 37 to looped/cyclic peptides of protein X2 of SARS-CoV Urbani / Binding of serum 6 to linear peptides of protein M of SARS-CoV Urbani / Binding of serum 37 to linear peptides of protein M of SARS-CoV Urbani / Binding of serum 6 to looped/cyclic peptides of protein M of SARS-CoV Urbani / Binding of serum 37 to looped/cyclic peptides of protein M of SARS-CoV Urbani / Binding of serum 6 to linear peptides of protein X3 of SARS-CoV Urbani / Binding of serum 37 to linear peptides of protein X3 of SARS-CoV Urbani / Binding of serum 37 to looped/cyclic peptides of protein X3 of SARS-CoV Urbani / Binding of serum 6 to linear peptides of protein X4 of SARS-CoV Urbani / Binding of serum 37 to linear peptides of protein X4 of SARS-CoV Urbani / Binding of serum 37 to looped/cyclic peptides of protein X4 of SARS-CoV Urbani / Binding of serum 6 to linear peptides of protein X5 of SARS-CoV Urbani / Binding of serum 37 to linear peptides of protein X5 of SARS-CoV Urbani / Binding of serum 37 to looped/cyclic peptides of protein X5 of SARS-CoV Urbani / Binding of serum 6 to linear peptides of protein N of SARS-CoV Urbani / Binding of serum 37 to linear peptides of protein N of SARS-CoV Urbani / Binding of serum 6 to linear peptide (PEPSCAN-ELISA) / Binding of serum 1a to looped/cyclic peptides of protein N of SARS-CoV Urbani / Binding of serum 1b to looped/cyclic peptides of protein N of SARS-CoV Urbani / Binding of serum 2 to looped/cyclic peptides of protein N of SARS-CoV Urbani / Binding of serum 6 to looped/cyclic peptides of protein N of SARS-CoV Urbani / Binding of serum 37 to looped/cyclic peptides of protein N of SARS-CoV Urbani / Binding of serum 62 to looped/cyclic peptides of protein N of SARS-CoV Urbani / Binding of serum London to looped/cyclic peptides of protein N of SARS-CoV Urbani / Binding of serum SARS-green to looped/cyclic peptides of protein N of SARS-CoV Urbani: unit not given here

Sequence	Binding of antibody 03-018 to linear peptides of the N protein of SARS-CoV Urbani [1]	Binding of antibody 03-018 to looped/cyclic peptides of the N protein of SARS-CoV Urbani [1]	Binding of Control Serum Blood-Bank to Looped peptides [2]	Binding of Control serum Blood-bank to linear peptides [2]	Binding of Control serum LUMC to linear peptides [2]	Binding of Control serum LUMC to looped peptides [2]	Binding of a rabbit serum to linear peptides of protein N of SARS-CoV Urbani (Rabbit serum linear peptides) [3]	Binding of a rabbit serum to looped/cyclic peptides of protein N of SARS-CoV Urbani (Rabbit serum looped peptides) [3]	Binding of serum 1a to looped/cyclic peptides of protein N of SARS-CoV Urbani [4]	Binding of serum 1b to looped/cyclic peptides of protein N of SARS-CoV Urbani [4]	Binding of serum 2 to looped/cyclic peptides of protein N of SARS-CoV Urbani [4]	Binding of serum 6 to looped/cyclic peptides of protein N of SARS-CoV Urbani [4]	Binding of serum 37 to looped/cyclic peptides of protein N of SARS-CoV Urbani [4]	Binding of serum 62 to looped/cyclic peptides of protein N of SARS-CoV Urbani [4]	Binding of serum London to looped/cyclic peptides of protein N of SARS-CoV Urbani [4]	Binding of serum SARS-green to looped/cyclic peptides of protein N of SARS-CoV Urbani [4]	Binding of serum SARS-yellow to looped/cyclic peptides of protein N of SARS-CoV Urbani [4]	Binding of serum 1a to linear peptides of protein N of SARS-CoV Urbani [4]	Binding of serum 1b to linear peptides of protein N of SARS-CoV Urbani [4]	Binding of serum 2 to linear peptides of protein N of SARS-CoV Urbani [4]	further results
NFGDQDLIRQGTDYK	0.1	0.2	0.5	0.8	0.7	0.4	0.1	0.1	0.2	0.1	0.2	0.1	0.4	0.3	0.3	0.2	0.1				Binding of serum 1a to linear peptide (PEPSCAN-ELISA) [4]: 0.3; Binding of serum 1b to linear peptide (PEPSCAN-ELISA) [4]: 0.2; Binding of serum 2 to linear peptide (PEPSCAN-ELISA) [4]: 0.2; Binding of serum 6 to linear peptide (PEPSCAN-ELISA) [4]: 0.2; Binding of serum 37 to linear peptide (PEPSCAN-ELISA) [4]: 0.7; Binding of serum 62 to linear peptide (PEPSCAN-ELISA) [4]: 0.7; Binding of serum London to linear peptide (PEPSCAN-ELISA) [4]: 0.6; Binding of serum SARS-green to linear peptide (PEPSCAN-ELISA) [4]: 0.8; Binding of serum SARS-yellow to linear peptide (PEPSCAN-ELISA) [4]: 0.6
NGARPKQRRPQGLPN	0.1	0.3	0.6	0.7	0.6	0.6	0.1	0.3	0.3	0.2	0.3	0.4	0.6	0.5	0.5	0.4	0.4	0.2	0.1	0.2	Binding of serum 6 to linear peptides of protein N of SARS-CoV Urbani [4]: 0.1; Binding of serum 37 to linear peptides of protein N of SARS-CoV Urbani [4]: 0.7; Binding of serum 62 to linear peptides of protein N of SARS-CoV Urbani [4]: 0.5; Binding of serum London to linear peptides of protein N of SARS-CoV Urbani [4]: 0.4; Binding of serum SARS-green to linear peptides of protein N of SARS-CoV Urbani [4]: 0.3; Binding of serum SARS-yellow to linear peptides of protein N of SARS-CoV Urbani [4]: 0.5
NGGRNGARPKQRRPQ	0.2	0.3	0.7	0.6	0.6	0.7	0.1	1.1	0.3	0.2	0.3	0.3	0.6	0.5	0.3	0.4	0.5	0.2	0.1	0.2	Binding of serum 6 to linear peptides of protein N of SARS-CoV Urbani [4]: 0.2; Binding of serum 37 to linear peptides of protein N of SARS-CoV Urbani [4]: 0.7; Binding of serum 62 to linear peptides of protein N of SARS-CoV Urbani [4]: 0.7; Binding of serum London to linear peptides of protein N of SARS-CoV Urbani [4]: 0.5; Binding of serum SARS-green to linear peptides of protein N of SARS-CoV Urbani [4]: 0.5; Binding of serum SARS-yellow to linear peptides of protein N of SARS-CoV Urbani [4]: 0.5
NGPQSNQRSAPRITF			0.7	0.8	0.6	0.8			0.3	0.2	0.5	0.3	0.8	0.6	0.5	0.5	0.6	0.2	0.1	0.2	Recognition of the peptide by antibody 03-018 [1]: recognized; Recognition of the peptide by the rabbit serum [3]: also recognized; Binding of serum 6 to linear peptides of protein N of SARS-CoV Urbani [4]: 0.2; Binding of serum 37 to linear peptides of protein N of SARS-CoV Urbani [4]: 0.8; Binding of serum 62 to linear peptides of protein N of SARS-CoV Urbani [4]: 0.5; Binding of serum London to linear peptides of protein N of SARS-CoV Urbani [4]: 0.4; Binding of serum SARS-green to linear peptides of protein N of SARS-CoV Urbani [4]: 0.4; Binding of serum SARS-yellow to linear peptides of protein N of SARS-CoV Urbani [4]: 0.5

— patent US20070128217A1 (priority 2003, published 2007)
